Measurements published in patent publication US8969554B2, “6-acyl-1,2,4-triazine-3,5-dione derivative and herbicides” (Kumiai Chemical Industry Co., Ltd., priority 2010, dated 2015).

Experiments:
Assay type in all cases: in vivo
[1] = tested on: foxtail; assay: Herbicidal activity by field soil treatment (Test example 2); conditions: 1000 g effective component per hectare, day 21 after the treatment;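 further: index 0 to 10 in 10% steps of herbicidal effect with 10 meaning complete death and 0 below 10%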
Protocol: [table] Test for Determining Herbicidal Activity by Field Soil Treatment A 80 cm^2 wide plastic pot was filled with a field soil and seeds of each of Echinochloa crus-galli, foxtail, Indian millet, and A. retroflexus were sowed and then covered with soil. The wettable powder produced with reference to the Formulation example 1 was diluted water, and applied on the soil surface by using a small sprayer in an amount of 1000 liters per hectare so that the effective component is 1000 g per hectare. After that, the plants were cultivated in a greenhouse, and on day 21 after the treatment, evaluation was made by the criteria described in Table 72 for determining the herbicidal effects.

[2] = tested on: Echinochloa crus-galli; assay: Herbicidal activity by field foliage treatment (Test example 3); design: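 index 0 to 10 in 10% steps of herbicidal effect with 10 meaning complete death and 0 below 10%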; conditions: 1000 g effective component per hectare, day 14 after the treatment
Outline: (§1)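 Herbicidal effect was rated on day 14 following a foliar spray of 1000 g active ingredient per hectare, applied as water-diluted wettable powder at 1000 L/ha. Plants had been raised for 2 weeks in field soil under greenhouse conditions before spraying.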

[3] = tested on: A. retroflexus; assay: as above; design: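 index 0 to 10 in 10% steps of herbicidal effect with 10 meaning complete death and 0 below 10%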; conditions: 1000 g effective component per hectare, day 14 after the treatment
Outline: (§2)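 Scoring of herbicidal effect by set criteria took place 14 days post-spray. Plants had been raised 2 weeks in field soil under glass before whole-plant foliar application of diluted wettable powder (1000 g active component/ha, spray volume 1000 L/ha).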

[4] = tested on: Indian millet; assay: as above; design: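 index 0 to 10 in 10% steps of herbicidal effect with 10 meaning complete death and 0 below 10%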; conditions: 1000 g effective component per hectare, day 14 after the treatment
Outline: as §2

[5] = tested on: Echinochloa crus-galli; assay: Herbicidal activity by field soil treatment (Test example 2); design: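 index 0 to 10 in 10% steps of herbicidal effect with 10 meaning complete death and 0 below 10%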; conditions: 1000 g effective component per hectare, day 21 after the treatment
Outline: (§3)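 Pre-emergence soil spray: wettable-powder formulation in water at 1000 g active ingredient per hectare (1000 L/ha) onto freshly sown, soil-covered seeds in field soil. Scoring of herbicidal effect by defined criteria 21 days post-treatment, plants kept in a greenhouse.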

[6] = tested on: A. retroflexus; assay: as above; design: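 index 0 to 10 in 10% steps of herbicidal effect with 10 meaning complete death and 0 below 10%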; conditions: 1000 g effective component per hectare, day 21 after the treatment
Outline: as §3

[7] = tested on: Indian millet; assay: as above; design: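 index 0 to 10 in 10% steps of herbicidal effect with 10 meaning complete death and 0 below 10%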; conditions: 1000 g effective component per hectare, day 21 after the treatment
Outline: as §3

[8] = tested on: Setaria viridis; assay: Herbicidal activity by field foliage treatment (Test example 3); conditions: 1000 g effective component per hectare, day 14 after the treatment;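 further: index 0 to 10 in 10% steps of herbicidal effect with 10 meaning complete death and 0 below 10%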
Outline: as §1

[9] = tested on: Scirpus juncoides Rocxb.; assay: Herbicidal activity by paddy field soil treatment (Test Example 1); design: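 index 0 to 10 in 10% steps of herbicidal effect with 10 meaning complete death and 0 below 10%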; conditions: applied on water surface, 1000 g of effective component per hectare, day 21 after the treatment
Outline: (§4)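 Pre-emergence water-surface application one day after sowing into flooded (3 cm) paddy soil, dose 1000 g effective component per hectare from a diluted wettable powder. Plants kept in greenhouse and rated for herbicidal effect 21 days post-treatment.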

[10] = tested on: Monochoria vaginalis; assay: as above; design: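 index 0 to 10 in 10% steps of herbicidal effect with 10 meaning complete death and 0 below 10%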; conditions: 1000 g of effective component per hectare, evaluated on day 21 after the treatment, criteria of Table 72
Outline: as §4

[11] = tested on: Echinochloa oryzicola; assay: as above; design: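 index 0 to 10 in 10% steps of herbicidal effect with 10 meaning complete death and 0 below 10%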; conditions: 1000 g of effective component per hectare, evaluated on day 21 after the treatment, criteria of Table 72
Outline: as §4

Row | SMILES | herbicidal effect index, Setaria viridis [1] | herbicidal effect index, Echinochloa crus-galli [2] | herbicidal effect index, Amaranthus retroflexus [3] | herbicidal effect index, Abutilon theophrasti [4] | herbicidal effect index, Echinochloa crus-galli [5] | herbicidal effect index, Amaranthus retroflexus [6] | herbicidal effect index, Abutilon theophrasti [7] | herbicidal effect index, Setaria viridis [8] | herbicidal effect index, S. juncoides Rocxb. [9] | Herbicidal effects index number, Monochoria vaginalis [10] | Herbicidal effects index number, Echinochloa oryzicola [11]
1 | C=CCn1c(=O)c(C(=O)C2=C(O)CCCC2=O)nn(C)c1=O [I-11] | 7 | 9 | 10 | 9 | 10 | 10 | 9 | 9 | 10 | 10 | 10
2 | Cn1nc(C(=O)C2=C(O)CCCC2=O)c(=O)n(-c2ccccc2-c2ccccc2)c1=O [I-269] | 9 | 10 | 10 | 9 | 8 | 10 | 9 | 8 | 10 | 8 | 8
3 | Cn1nc(C(=O)C2=C(O)CCCC2=O)c(=O)n(-c2cccc(C#N)c2)c1=O [I-73] | 8 | 10 | 10 | 10 | 9 | 10 | 10 | 10 | 10 | 10 | 10
4 | Cc1cccc(-n2c(=O)c(C(=O)C3=C(O)CCCC3=O)nn(C)c2=O)c1C [I-89] | 8 | 9 | 10 | 10 | 9 | 10 | 10 | 10 | 10 | 10 | 10
5 | Cn1nc(C(=O)C2=C(O)CCCC2=O)c(=O)n(C)c1=O [I-1] | 7 | 8 | 10 | 9 | 8 | 10 | 9 | 8 | 10 | 10 | 10
6 | Cc1ccc(Cl)c(-n2c(=O)c(C(=O)C3=C(O)CCCC3=O)nn(C)c2=O)c1 [I-129] | 10 | 10 | 10 | 9 | 9 | 10 | 10 | 9 | 10 | 10 | 10
7 | Cc1ccc(C(F)(F)F)cc1-n1c(=O)c(C(=O)C2=C(O)CCCC2=O)nn(C)c1=O [I-284] | 8 | 9 | 9 | 8 | 10 | 10 | 9 | 7 | 10 | 10 | 10
8 | Cc1cc(Cl)ccc1-n1c(=O)c(C(=O)C2=C(O)CCCC2=O)nn(C)c1=O [I-137] | 9 | 10 | 10 | 10 | 10 | 10 | 10 | 10 | 10 | 10 | 10
9 | Cc1cccc(-n2c(=O)c(C(=O)C3=C(O)CCCC3=O)nn(C)c2=O)c1 [I-58] | 8 | 10 | 10 | 10 | 10 | 10 | 10 | 10 | 10 | 10 | 10
10 | Cn1nc(C(=O)C2=C(O)CCCC2=O)c(=O)n(CC(F)(F)F)c1=O [I-10] | 10 | 8 | 10 | 9 | 10 | 10 | 10 | 7 | 10 | 10 | 10
11 | Cn1nc(C(=O)C2=C(O)CCCC2=O)c(=O)n(-c2ccc(Cl)cc2Cl)c1=O [I-84] | 9 | 9 | 10 | 10 | 9 | 10 | 10 | 10 | 10 | 10 | 10
12 | CCc1ccccc1-n1c(=O)c(C(=O)C2=C(O)CCCC2=O)nn(C)c1=O [I-288] | 9 | 9 | 10 | 10 | 10 | 10 | 9 | 10 | 10 | 10 | 10
13 | Cn1nc(C(=O)C2=C(O)CCCC2=O)c(=O)n(C2CC2)c1=O [I-16] | 9 | 9 | 10 | 9 | 9 | 10 | 9 | 9 | 10 | 9 | 9
14 | Cc1ccc(-n2c(=O)c(C(=O)C3=C(O)CCCC3=O)nn(C)c2=O)c(Cl)c1 [I-128] | 9 | 9 | 10 | 10 | 8 | 10 | 10 | 10 | 10 | 9 | 8
15 | Cn1nc(C(=O)C2=C(O)CCCC2=O)c(=O)n(-c2ccc(Cl)c(Cl)c2)c1=O [I-81] | 7 | 10 | 10 | 10 | 9 | 10 | 10 | 10 | 10 | 10 | 10
